Measurements reported in US6569456B2, “Osmotic device containing diltiazem and an ACE inhibitor or diuretic” (priority 2000, dated 2003).

Assay: separate study of diltiazem half-life
Conditions: in vivo
From the text: The delayed release of the diltiazem causes a delay in the onset of diltiazem build-up in the plasma. Accordingly, onset of the side effects (adverse events) associated with diltiazem therapy have a delayed onset and a patient taking the medication before a rest period should not experience any difficulty in falling asleep.

- half-life: ~8.5 h
Compound: COc1ccc([C@@H]2Sc3ccccc3N(CCN(C)C)C(=O)[C@@H]2OC(C)=O)cc1 [diltiazem]
